Each compound was assayed against WDR5 (Δ23, residues 24-334) (Homo sapiens, UniProt P61964) (assay: biochemical). Settings: Kd (M), FPA-based binding affinity at the WDR5 WIN site; IC50 converted to Kd by modified Cheng-Prusoff equation; average of two experiments.

Compound	Kd
O=C(Cc1ccncc1)NCc1cccc(-c2cn3c(n2)CCC3)c1 [B123]	2.2e-08 M
CN(C)C(=O)CCC(=O)NCc1cccc(-c2cn3c(n2)CCC3)c1 [B124]	2.25e-07 M
O=C(Cc1ccc(Cl)c(Cl)c1)NCc1cc(-c2cn3c(n2)CCC3)ccc1Oc1ccccc1 [B125]	2.2e-07 M
COc1cccc(C(=O)NCc2cc(-c3cn4c(n3)CCC4)ccc2-c2ccccc2)c1 [B126]	5.7e-08 M
Cc1ccc(C(=O)NCc2cccc(-c3cn4c(n3)CCC4)c2)cc1C(F)(F)F [B130]	9.72e-07 M
O=C(Cc1cccc(Cl)c1)NCc1cccc(-c2cn3c(n2)CCC3)c1 [B133]	6e-06 M
O=C(Cc1cc(C(F)(F)F)cc(C(F)(F)F)c1)NCc1cccc(-c2cn3c(n2)CCC3)c1 [B134]	4.59e-06 M
O=C(Cc1ccc(Cl)nc1)NCc1cccc(-c2cn3c(n2)CCC3)c1 [B135]	8.7e-08 M
O=C(Cc1cccc(Br)c1)NCc1cccc(-c2cn3c(n2)CCC3)c1 [B136]	3.09e-07 M
O=C(Cc1cccc(OC(F)(F)F)c1)NCc1cccc(-c2cn3c(n2)CCC3)c1 [B137]	2.6e-08 M
COc1cccc(C(=O)NCc2cc(-c3cn4c(n3)CCC4)ccc2N2CCOCC2)c1 [B139]	1.84e-07 M
CC(=O)N1CCCC(CC(=O)NCc2cccc(-c3cn4c(n3)CCC4)c2)C1 (stereo not shown) [B140]	8.67e-07 M
CC(=O)N1CC(CC(=O)NCc2cccc(-c3cn4c(n3)CCC4)c2)C1 [B141]	1e-08 M
CN1CCN(c2ccc(-c3cn4c(n3)CCC4)cc2CNC(=O)Cc2ccc(Cl)c(Cl)c2)CC1 [B142]	1.2e-07 M
Cc1ccccc1-c1ccc(-c2cn3c(n2)CCC3)cc1CNC(=O)Cc1ccc(Cl)c(Cl)c1 [B145]	6.77e-06 M
O=C(Cc1ccc(Cl)c(Cl)c1)N(Cc1cc(-c2cn3c(n2)CCC3)ccc1N1CCCC1)CC1CC1 [B146]	4.16e-07 M
COc1cccc(C(=O)NCc2cc(-c3cn4c(n3)CCC4)ccc2N2CCN(C)CC2)c1 [B147, N-(5-(6,7-dihydro-5H-pyrrolo[1,2-a]imidazol-2-yl)-2-(4-methylpiperazin-1-yl)benzyl)-3-methoxybenzamide]	2.22e-06 M
CC(C)N(Cc1cc(-c2cn3c(n2)CCC3)ccc1OC1CCC1)C(=O)Cc1ccc(Cl)c(Cl)c1 [B148]	1.4e-08 M
O=C(Cc1cccc(Cl)c1Cl)NCc1cccc(-c2cn3c(n2)CCC3)c1 [B149]	8.75e-07 M
O=C(CC1CCNCC1)NCc1cccc(-c2cn3c(n2)CCC3)c1 [B150]	1e-05 M
O=C(Cc1cccnc1)NCc1cccc(-c2cn3c(n2)CCC3)c1 [B152]	1.23e-06 M
O=C(Cc1ccc2c(c1)CCO2)NCc1cccc(-c2cn3c(n2)CCC3)c1 [B153]	6.04e-07 M

Compound	Kd
O=C(Cc1ccc2c(c1)OCO2)NCc1cccc(-c2cn3c(n2)CCC3)c1 [B154]	1e-09 M
O=C(Cc1ccc(F)c(Cl)c1)NCc1cccc(-c2cn3c(n2)CCC3)c1 [B155]	1.05e-07 M
CC(=O)N1CCCC(C(=O)NCc2cc(-c3cn4c(n3)CCC4)ccc2N2CCOCC2)C1 (stereo not shown) [B156]	6.8e-08 M
COc1cccc(CCC(=O)NCc2cccc(-c3cn4c(n3)CCC4)c2)c1 [B157]	9.1e-08 M
O=C(CCc1cccc(Cl)c1)NCc1cccc(-c2cn3c(n2)CCC3)c1 [B158]	4.99e-06 M
Cc1cc(Cl)cc(C(=O)NCc2cccc(-c3cn4c(n3)CCC4)c2)c1 [B160]	1.81e-06 M
CC(=O)N1CCCC(C(=O)N(Cc2cc(-c3cn4c(n3)CCC4)ccc2OC2CCC2)CC2CC2)C1 (stereo not shown) [B161]	1e-05 M
Cc1ccc(-c2ccc(-c3cn4c(n3)CCC4)cc2CNC(=O)Cc2ccc(Cl)c(Cl)c2)cc1 [B163]	1e-05 M
CC(=O)N1CCCC(C(=O)NCc2cc(-c3cn4c(n3)CCC4)ccc2OC2CCC2)C1 (stereo not shown) [B164]	2.31e-07 M
CC1CN(c2ccc(-c3cn4c(n3)CCC4)cc2CNC(=O)Cc2ccc(Cl)c(Cl)c2)CC(C)O1 (stereo not shown) [B165]	3.32e-06 M
O=C(NCc1cccc(-c2cn3c(n2)CCC3)c1)c1ccc(F)c(F)c1 [B166]	5.8e-08 M
O=C(NCc1cccc(-c2cn3c(n2)CCC3)c1)c1cccc(Cl)c1Cl [B167]	3.8e-07 M
O=C(NCc1cccc(-c2cn3c(n2)CCC3)c1)c1cocn1 [B168]	5.75e-07 M
Cc1cnc(Cl)c(C(=O)NCc2cccc(-c3cn4c(n3)CCC4)c2)c1 [B169]	6.68e-07 M
O=C(NCc1cccc(-c2cn3c(n2)CCC3)c1)c1cnco1 [B170]	9.24e-07 M
Cc1ccc(C(=O)NCc2cccc(-c3cn4c(n3)CCC4)c2)cc1Br [B171]	6.26e-07 M
N#Cc1cccc(C(=O)NCc2cccc(-c3cn4c(n3)CCC4)c2)c1 [B172]	2.18e-07 M
COc1cc(C(=O)NCc2cc(-c3cn4c(n3)CCC4)ccc2N2CC(C)OC(C)C2)ccc1C (stereo not shown) [B174]	1.12e-07 M
O=C(Cc1ccc(Cl)c(Cl)c1)N(Cc1cc(-c2cn3c(n2)CCC3)ccc1N1CCOCC1)CC1CC1 [B175, N-(Cyclopropylmethyl)-2-(3,4-dichlorophenyl)-N-(5-(6,7-dihydro-5H-pyrrolo[1,2-a]imidazol-2-yl)-2-morpholinobenzyl)acetamide]	5.2e-08 M
CC(=O)N1CCCC(C(=O)N(Cc2cc(-c3cn4c(n3)CCC4)ccc2N2CCOCC2)CC2CC2)C1 (stereo not shown) [B176]	6.3e-08 M
COC1CCN(c2ccc(-c3cn4c(n3)CCC4)cc2CNC(=O)Cc2ccc(Cl)c(Cl)c2)C1 (stereo not shown) [B177]	2.08e-06 M
COc1cccc(C(=O)NCc2cc(-c3cn4c(n3)CCC4)ccc2N2CCC(OC)C2)c1 (stereo not shown) [B178]	1.73e-06 M

Compound	Kd
COc1cc(C(=O)N(Cc2cc(-c3cn4c(n3)CCC4)ccc2N2CCCC2)CC2CC2)ccc1C [B179]	3.62e-06 M
COc1cccc(C(=O)NCc2cc(-c3cn4c(n3)CCC4)ccc2N2CC(C)OC(C)C2)c1 (stereo not shown) [B180]	3.07e-07 M
CCC(=O)N1CCCC(C(=O)NCc2cccc(-c3cn4c(n3)CCC4)c2)C1 (stereo not shown) [B181]	1e-05 M
CS(=O)(=O)N1CCCCC1C(=O)NCc1cccc(-c2cn3c(n2)CCC3)c1 (stereo not shown) [B182]	1.09e-06 M
CS(=O)(=O)NCc1cccc(C(=O)NCc2cccc(-c3cn4c(n3)CCC4)c2)c1 [B183]	1.34e-06 M
O=C(NCc1cccc(-c2cn3c(n2)CCC3)c1)C1CCCN(C(=O)CC(F)(F)F)C1 (stereo not shown) [B184]	5.8e-08 M
CC(C)C(=O)N1CCCC(C(=O)NCc2cccc(-c3cn4c(n3)CCC4)c2)C1 (stereo not shown) [B185]	1.55e-07 M
CS(=O)(=O)N1CCCC(C(=O)NCc2cccc(-c3cn4c(n3)CCC4)c2)C1 (stereo not shown) [B186]	3e-09 M
O=C(NCc1cccc(-c2cn3c(n2)CCC3)c1)C1CCCN(C(=O)C2CC2)C1 (stereo not shown) [B187]	9.47e-07 M
CC(=O)N1CCCCC1C(=O)NCc1cccc(-c2cn3c(n2)CCC3)c1 (stereo not shown) [B188]	3.3e-08 M
CC(=O)NCc1cccc(C(=O)NCc2cccc(-c3cn4c(n3)CCC4)c2)c1 [B189]	7.41e-07 M
CC(c1cccc(-c2cn3c(n2)CCC3)c1)N(CC1CC1)C(=O)Cc1ccc(Cl)c(Cl)c1 (stereo not shown) [B190]	1.1e-08 M
COc1cccc(C(=O)N(CC2CC2)C(C)c2cccc(-c3cn4c(n3)CCC4)c2)c1 (stereo not shown) [B191]	1.85e-06 M
CC(NC(=O)Cc1ccc(Cl)c(Cl)c1)c1cccc(-c2cn3c(n2)CCC3)c1 (stereo not shown) [B192]	1.25e-07 M
O=C(Cc1ccc(F)c(Cl)c1)NCc1cc(-c2cn3c(n2)CCC3)ccc1N1CCOCC1 [B193]	3.23e-06 M
COc1cc(C(=O)NCc2cc(-c3cn4c(n3)CCC4)ccc2N2CCOCC2)ccc1C [B194]	2.04e-06 M
O=C(NCc1cc(-c2cn3c(n2)CCC3)ccc1N1CCOCC1)c1cc(Cl)ccn1 [B195]	9.61e-07 M
O=C(Cc1ccc(F)c(Cl)c1)NCc1cc(-c2cn3c(n2)CCC3)ccc1OC1CCC1 [B197]	2.17e-06 M
COc1cc(C(=O)N(Cc2cc(-c3cn4c(n3)CCC4)ccc2N2CCOCC2)CC2CCCCC2)ccc1C [B198]	1.59e-07 M
CC(C)N1CCCC(C(=O)NCc2cc(-c3cn4c(n3)CCC4)ccc2OC2CCC2)C1 (stereo not shown) [B199]	6.3e-06 M
COc1cc(C(=O)N(Cc2cc(-c3cn4c(n3)CCC4)ccc2N2CCOCC2)CC2CC2)ccc1C [B200]	4.04e-06 M
COc1cc(C(=O)NC(C)c2cccc(-c3cn4c(n3)CCC4)c2)ccc1C (stereo not shown) [B201]	2.3e-08 M

Compound	Kd
O=C(Cc1ccc(F)c(Cl)c1)N(Cc1cc(-c2cn3c(n2)CCC3)ccc1N1CCOCC1)CC1CCOCC1 [B202]	4.56e-07 M
COc1cc(C(=O)NCc2cc(-c3cn4c(n3)CCC4)ccc2N2CCOCC2C)ccc1C (stereo not shown) [B203]	2.3e-08 M
COc1cc(C(=O)N(Cc2cc(-c3cn4c(n3)CCC4)ccc2N2CCOCC2)CC2CCOCC2)ccc1C [B204]	2.6e-08 M
COc1cccc(C(=O)NC(C)c2cccc(-c3cn4c(n3)CCC4)c2)c1 (stereo not shown) [B205]	2.3e-08 M
CC(NC(=O)Cc1ccc(F)c(Cl)c1)c1cccc(-c2cn3c(n2)CCC3)c1 (stereo not shown) [B206]	1.35e-06 M
COc1cc(C(=O)NC(C)c2cc(-c3cn4c(n3)CCC4)ccc2OC2CCC2)ccc1C (stereo not shown) [B207]	1.6e-08 M
CC(=O)N1CCCC(C(=O)NC(C)c2cc(-c3cn4c(n3)CCC4)ccc2OC2CCC2)C1 (stereo not shown) [B208]	2.2e-08 M
CC(=O)N1CCCC(C(=O)NC(C)c2cccc(-c3cn4c(n3)CCC4)c2)C1 (stereo not shown) [B209]	1e-08 M
CCC(=O)N1CCCC(C(=O)NC(C)c2cc(-c3cn4c(n3)CCC4)ccc2OC2CCC2)C1 (stereo not shown) [B210]	3.1e-07 M
CCC(=O)N1CCCC(C(=O)NC(C)c2cccc(-c3cn4c(n3)CCC4)c2)C1 (stereo not shown) [B211]	1.1e-08 M
CC(NC(=O)Cc1ccc(F)c(Cl)c1)c1cc(-c2cn3c(n2)CCC3)ccc1OC1CCC1 (stereo not shown) [B212]	4.7e-08 M
COc1cc(C(=O)NC(C)c2cc(-c3cn4c(n3)CCC4)ccc2N2CCOCC2)ccc1C (stereo not shown) [B213]	4.7e-08 M
CC(NC(=O)Cc1ccc(F)c(Cl)c1)c1cc(-c2cn3c(n2)CCC3)ccc1N1CCOCC1 (stereo not shown) [B214]	4e-08 M
CCC(NC(=O)c1ccc(C)c(OC)c1)c1cccc(-c2cn3c(n2)CCC3)c1 (stereo not shown) [B215]	1.7e-08 M
CC(C)(NC(=O)Cc1ccc(F)c(Cl)c1)c1cccc(-c2cn3c(n2)CCC3)c1 [B216]	5.99e-07 M
CCC(NC(=O)Cc1ccc(F)c(Cl)c1)c1cccc(-c2cn3c(n2)CCC3)c1 (stereo not shown) [B217]	3.2e-08 M
NC(C(=O)NCc1cc(-c2cn3c(n2)CCC3)ccc1N1CCOCC1)c1ccccc1 (stereo not shown) [B218]	1.79e-07 M
NC(C(=O)NCc1cc(-c2cn3c(n2)CCC3)ccc1OC1CCC1)c1ccccc1 (stereo not shown) [B219]	3.83e-07 M
COc1cc(C(=O)NC(c2cccc(-c3cn4c(n3)CCC4)c2)C(C)C)ccc1C (stereo not shown) [B220, N-(1-(3-(6,7-Dihydro-5H-pyrrolo[1,2-a]imidazol-2-yl)phenyl)-2-methylpropyl)-3-methoxy-4-methylbenzamide]	2.04e-07 M

— patent publication US10160763B2, “WDR5 inhibitors and modulators” (Vanderbilt University, priority 2016, dated 2018)
